Source: ChEMBL document CHEMBL1136143, “Synthesis and activity of novel benzoxazole derivatives of mannopeptimycin glycopeptide antibiotics” (2003)
Converted amounts (≈) assume the structure as drawn.

Legend:
Assay type in all cases: functional
Streptococcus = experiment: In vitro minimum inhibitory concentration against Streptococcus Species (5 strains, including PRSP)
Staphylococcus aureus = experiment: In vitro minimum inhibitory concentration against Staphylococcus aureus (10strains, including MRSA)
Enterococcus sp. = experiment: In vitro minimum inhibitory concentration against Enterococcus species (11 strains, including VRE)

Row | Structure (SMILES) | MIC (Streptococcus) [µg/mL] | MIC (Staphylococcus aureus) [µg/mL] | MIC (Enterococcus sp.) [µg/mL]
1 | C[C@@H](c1ccccc1)[C@@H]1NC(=O)CNC(=O)[C@H](CO)NC(=O)[C@@H]([C@@H](O)[C@@H]2CN=C(N)N2)NC(=O)[C@H]([C@H](O)[C@@H]2CN=C(N)N2)NC(=O)[C@@H](Cc2ccc3nc(-c4ccccc4)oc3c2)NC1=O | 32 (≈ 35.2 µM) | 32 (≈ 35.2 µM) | 32 (≈ 35.2 µM)
2 | COc1cc(-c2nc3ccc(C[C@H]4NC(=O)[C@H]([C@@H](C)c5ccccc5)NC(=O)CNC(=O)[C@H](CO)NC(=O)[C@@H]([C@@H](O)[C@@H]5CN=C(N)N5[C@H]5O[C@H](CO)[C@@H](O)[C@H](O)[C@@H]5O)NC(=O)[C@H]([C@H](O)[C@@H]5CN=C(N)N5)NC4=O)cc3o2)cc(OC)c1OC | 8 (≈ 6.88 µM) | 8 (≈ 6.88 µM) | 8 (≈ 6.88 µM)
3 | C[C@@H](c1ccccc1)[C@@H]1NC(=O)CNC(=O)[C@H](CO)NC(=O)[C@@H]([C@@H](O)[C@@H]2CN=C(N)N2[C@H]2O[C@H](CO)[C@@H](O)[C@H](O)[C@@H]2O)NC(=O)[C@H]([C@H](O)[C@@H]2CN=C(N)N2)NC(=O)[C@@H](Cc2ccc3nc(-c4ccc(C(C)(C)C)cc4)oc3c2)NC1=O | 8 (≈ 7.09 µM) | 2 (≈ 1.77 µM) | 2 (≈ 1.77 µM)
4 | C[C@@H](c1ccccc1)[C@@H]1NC(=O)CNC(=O)[C@H](CO)NC(=O)[C@@H]([C@@H](O)[C@@H]2CN=C(N)N2[C@H]2O[C@H](CO)[C@@H](O)[C@H](O)[C@@H]2O)NC(=O)[C@H]([C@H](O)[C@@H]2CN=C(N)N2)NC(=O)[C@@H](Cc2ccc3nc(-c4ccco4)oc3c2)NC1=O | 32 (≈ 30.1 µM) | 6 (≈ 5.65 µM) | 32 (≈ 30.1 µM)
5 | C[C@@H](c1ccccc1)[C@@H]1NC(=O)CNC(=O)[C@H](CO)NC(=O)[C@@H]([C@@H](O)[C@@H]2CN=C(N)N2[C@H]2O[C@H](CO)[C@@H](O)[C@H](O)[C@@H]2O)NC(=O)[C@H]([C@H](O)[C@@H]2CN=C(N)N2)NC(=O)[C@@H](Cc2ccc3nc(SCc4ccc(-c5ccccc5)cc4)oc3c2)NC1=O | 2 (≈ 1.67 µM) | 8 (≈ 6.7 µM) | 2 (≈ 1.67 µM)
6 | C[C@@H](c1ccccc1)[C@@H]1NC(=O)CNC(=O)[C@H](CO)NC(=O)[C@@H]([C@@H](O)[C@@H]2CN=C(N)N2[C@H]2O[C@H](CO)[C@@H](O)[C@H](O)[C@@H]2O)NC(=O)[C@H]([C@H](O)[C@@H]2CN=C(N)N2)NC(=O)[C@@H](Cc2ccc3nc(-c4cccs4)oc3c2)NC1=O | 16 (≈ 14.8 µM) | 8 (≈ 7.42 µM) | 16 (≈ 14.8 µM)
7 | C[C@@H](c1ccccc1)[C@@H]1NC(=O)CNC(=O)[C@H](CO)NC(=O)[C@@H]([C@@H](O)[C@@H]2CN=C(N)N2[C@H]2O[C@H](CO)[C@@H](O)[C@H](O)[C@@H]2O)NC(=O)[C@H]([C@H](O)[C@@H]2CN=C(N)N2)NC(=O)[C@@H](Cc2ccc3nc(NC4O[C@@H](OC(=O)c5ccccc5)[C@H](OC(=O)c5ccccc5)[C@@H](OC(=O)c5ccccc5)[C@@H]4COC(=O)c4ccccc4)oc3c2)NC1=O (stereo partly specified) | 4 (≈ 2.52 µM) | 32 (≈ 20.1 µM) | 4 (≈ 2.52 µM)
8 | C[C@@H](c1ccccc1)[C@@H]1NC(=O)CNC(=O)[C@H](CO)NC(=O)[C@@H]([C@@H](O)[C@@H]2CN=C(N)N2[C@H]2O[C@H](CO)[C@@H](O)[C@H](O)[C@@H]2O)NC(=O)[C@H]([C@H](O)[C@@H]2CN=C(N)N2)NC(=O)[C@@H](Cc2ccc3nc(-c4cccc(C(C)(C)C)c4)oc3c2)NC1=O | 8 (≈ 7.09 µM) | 16 (≈ 14.2 µM) | 8 (≈ 7.09 µM)
9 | C[C@@H](c1ccccc1)[C@@H]1NC(=O)CNC(=O)[C@H](CO)NC(=O)[C@@H]([C@@H](O)[C@@H]2CN=C(N)N2[C@H]2O[C@H](CO)[C@@H](O)[C@H](O)[C@@H]2O)NC(=O)[C@H]([C@H](O)[C@@H]2CN=C(N)N2)NC(=O)[C@@H](Cc2ccc3nc(SCc4ccccc4)oc3c2)NC1=O | 4 (≈ 3.58 µM) | 4 (≈ 3.58 µM) | 4 (≈ 3.58 µM)
10 | C[C@@H](c1ccccc1)[C@@H]1NC(=O)CNC(=O)[C@H](CO)NC(=O)[C@@H]([C@@H](O)[C@@H]2CN=C(N)N2[C@H]2O[C@H](CO)[C@@H](O)[C@H](O)[C@@H]2O)NC(=O)[C@H]([C@H](O)[C@@H]2CN=C(N)N2)NC(=O)[C@@H](Cc2ccc3nc(C=C(c4ccccc4)c4ccccc4)oc3c2)NC1=O | 4 (≈ 3.41 µM) | 8 (≈ 6.81 µM) | 8 (≈ 6.81 µM)
11 | C[C@@H](c1ccccc1)[C@@H]1NC(=O)CNC(=O)[C@H](CO)NC(=O)[C@@H]([C@@H](O)[C@@H]2CN=C(N)N2[C@H]2O[C@H](CO)[C@@H](O)[C@H](O)[C@@H]2O)NC(=O)[C@H]([C@H](O)[C@@H]2CN=C(N)N2)NC(=O)[C@@H](Cc2ccc3nc(-c4ccccc4OC4O[C@H](CO)[C@@H](O)[C@H](O)[C@H]4O)oc3c2)NC1=O (stereo partly specified) | 128 (≈ 102 µM) | > 128 | 128 (≈ 102 µM)
12 | C[C@@H](c1ccccc1)[C@@H]1NC(=O)CNC(=O)[C@H](CO)NC(=O)[C@@H]([C@@H](O)[C@@H]2CN=C(N)N2[C@H]2O[C@H](CO)[C@@H](O)[C@H](O)[C@@H]2O)NC(=O)[C@H]([C@H](O)[C@@H]2CN=C(N)N2)NC(=O)[C@@H](Cc2ccc3nc(-c4ccc5c(c4)-c4ccccc4C5)oc3c2)NC1=O | 4 (≈ 3.45 µM) | 8 (≈ 6.9 µM) | 4 (≈ 3.45 µM)
13 | C[C@@H](c1ccccc1)[C@@H]1NC(=O)CNC(=O)[C@H](CO)NC(=O)[C@@H]([C@@H](O)[C@@H]2CN=C(N)N2[C@H]2O[C@H](CO)[C@@H](O)[C@H](O)[C@@H]2O)NC(=O)[C@H]([C@H](O)[C@@H]2CN=C(N)N2)NC(=O)[C@@H](Cc2ccc3nc(-c4ccc(Br)cc4)oc3c2)NC1=O | 4 (≈ 3.48 µM) | 8 (≈ 6.95 µM) | 8 (≈ 6.95 µM)
14 | C[C@@H](c1ccccc1)[C@@H]1NC(=O)CNC(=O)[C@H](CO)NC(=O)[C@@H]([C@@H](O)[C@@H]2CN=C(N)N2[C@H]2O[C@H](CO)[C@@H](O)[C@H](O)[C@@H]2O)NC(=O)[C@H]([C@H](O)[C@@H]2CN=C(N)N2)NC(=O)[C@@H](Cc2ccc3nc(SCC(=O)c4ccccc4)oc3c2)NC1=O | 8 (≈ 6.98 µM) | 8 (≈ 6.98 µM) | 4 (≈ 3.49 µM)
15 | C[C@@H](c1ccccc1)[C@@H]1NC(=O)CNC(=O)[C@H](CO)NC(=O)[C@@H]([C@@H](O)[C@@H]2CN=C(N)N2[C@H]2O[C@H](CO)[C@@H](O)[C@H](O)[C@@H]2O)NC(=O)[C@H]([C@H](O)[C@@H]2CN=C(N)N2)NC(=O)[C@@H](Cc2ccc3nc(-c4ccc(-c5ccccc5)cc4)oc3c2)NC1=O | 16 (≈ 13.9 µM) | 4 (≈ 3.48 µM) | 4 (≈ 3.48 µM)
16 | C[C@@H](c1ccccc1)[C@@H]1NC(=O)CNC(=O)[C@H](CO)NC(=O)[C@@H]([C@@H](O)[C@@H]2CN=C(N)N2[C@H]2O[C@H](CO)[C@@H](O)[C@H](O)[C@@H]2O)NC(=O)[C@H]([C@H](O)[C@@H]2CN=C(N)N2)NC(=O)[C@@H](Cc2ccc3nc(-c4ccc(OCc5ccccc5)cc4)oc3c2)NC1=O | 8 (≈ 6.79 µM) | 8 (≈ 6.79 µM) | 4 (≈ 3.39 µM)
17 | CC(C)=Cc1nc2ccc(C[C@H]3NC(=O)[C@H]([C@@H](C)c4ccccc4)NC(=O)CNC(=O)[C@H](CO)NC(=O)[C@@H]([C@@H](O)[C@@H]4CN=C(N)N4[C@H]4O[C@H](CO)[C@@H](O)[C@H](O)[C@@H]4O)NC(=O)[C@H]([C@H](O)[C@@H]4CN=C(N)N4)NC3=O)cc2o1 | 32 (≈ 30.5 µM) | 32 (≈ 30.5 µM) | 16 (≈ 15.2 µM)
18 | C[C@@H](c1ccccc1)[C@@H]1NC(=O)CNC(=O)[C@H](CO)NC(=O)[C@@H]([C@@H](O)[C@@H]2CN=C(N)N2[C@H]2O[C@H](CO)[C@@H](O)[C@H](O)[C@@H]2O)NC(=O)[C@H]([C@H](O)[C@@H]2CN=C(N)N2)NC(=O)[C@@H](Cc2ccc3nc(-c4ccc(C(=O)O)cc4)oc3c2)NC1=O | 128 (≈ 115 µM) | > 128 | 128 (≈ 115 µM)
19 | CN[C@H](CC(C)C)C(=O)N[C@H]1C(=O)N[C@@H](CC(N)=O)C(=O)N[C@H]2C(=O)N[C@H]3C(=O)N[C@H](C(=O)N[C@H](C(=O)O)c4cc(O)cc(O)c4-c4cc3ccc4O)[C@H](O)c3ccc(c(Cl)c3)Oc3cc2cc(c3O[C@@H]2O[C@H](CO)[C@@H](O)[C@H](O)[C@H]2O[C@H]2C[C@](C)(N)[C@H](O)[C@H](C)O2)Oc2ccc(cc2Cl)[C@H]1O [VANCOMYCIN] | 0.25 (≈ 0.173 µM) | – | 5 (≈ 3.45 µM)
